Test results as given in paper PMC8400920, “Metabolism of Diterpenoids Derived from the Bark of Cinnamomum cassia in Human Liver Microsomes” (Pharmaceutics, 2021).

Legend:
Format in all cases: in vitro ADME
[1] = test system: human liver microsomes (HLMs); assay: Identification of phase I metabolites of AHC in HLMs; settings: 10 µM AHC, 1 mg/mL pooled HLMs, with NGS, 60 min
Description: To identify AHC metabolites, 10 µM AHC was incubated with 1 mg/mL pooled HLMs in 0.1 M potassium phosphate buffer (pH 7.4) at 37 °C for 60 min. The reactions were initiated by adding NGS to obtain a final incubation volume of 200 µL. All experiments were conducted in triplicate. The reaction was terminated by adding 400 µL of 100% ACN, and the mixture was vortexed and then centrifuged for 10 min at 15,700× g. Next, the supernatant (550 µL) was transferred to a new tube and dried using a speed-vac concentrator with a cold trap (Labconco, Kansas, MO, USA). Subsequently, the dried samples were reconstituted in 100 µL of 20% MeOH containing 0.1% formic acid before centrifugation at 15,700× g for 10 min. Finally, the mixture was injected into a liquid chromatograph with a tandem mass spectrometer for analysis. […]
The mobile phase consisted of 100% water with 0.1% formic acid (mobile phase A) and 100% ACN with 0.1% formic acid (mobile phase B). […] Data were analyzed using Xcalibur version 4.0 software (Thermo Fisher Scientific, Waltham, MA, USA).
To identify the phase I metabolites of AHC in HLMs, 10 µM AHC was incubated in pooled HLMs without or with the NGS for 60 min. […] The extracted ion chromatograms of the generated AHC metabolites are shown in Figure 2A,B. AHC was detected as a deprotonated ion, [M − H]^−, at m/z 407 and 15.6 min in the negative ion mode. […]

CYP2C19 = molecular target: T1, CYP2C19 (Homo sapiens, UniProt P33261); assay: AHC metabolism by recombinant cDNA-expressed CYP isoform; settings: 10 µM AHC, 10 pmol recombinant CYP, NGS, 37 °C, 60 min
T1 construct: purchased Corning Gentest
Description: (§1) To identify the metabolic enzymes for AHC, 10 µM AHC was incubated with 10 pmol of human recombinant cDNA-expressed CYP isoforms (CYP1A1, 1A2, 2A6, 2B6, 2C8, 2C9, 2C19, 2D6, 2E1, 3A4, and 3A5) in the presence of 0.1 M potassium phosphate buffer (pH 7.4). The reaction was initiated by adding 100 µL of NGS at 37 °C for 60 min. Then, the mixture was suspended by adding 400 µL of ice-cold 100% ACN. Following centrifugation at 15,700× g for 10 min at 4 °C, the supernatant was transferred to a new tube and evaporated using a speed-vacuum concentrator. Next, the dried sample was diluted with 100 µL of 20% MeOH containing 0.1% formic acid, and a 5 µL aliquot was injected into a C18 column for LC–MS/MS analysis.
(§2) To identify the CYP isoforms involved in AHC metabolism, AHC (10 µM) was incubated with eleven cDNA-expressed recombinant CYP isoforms (CYP1A1, CYP1A2, CYP2A6, CYP2B6, CYP2C8, CYP2C9, CYP2C19, CYP2D6, CYP2E1, CYP3A4, and CYP3A5) in the presence of the NGS. […] However, the metabolites of AHC were not observed from reactions with other CYPs. Thus, in the metabolism of AHC in HLMs, CYP3A4 was involved as the main enzyme, and four types of metabolites were generated.

CYP2B6 = molecular target: T2, CYP2B6 (Homo sapiens, UniProt P20813); assay: as above; settings: 10 µM AHC, 10 pmol recombinant CYP, NGS, 37 °C, 60 min
T2 construct: purchased Corning Gentest
T2 sequence (P20813 1-491): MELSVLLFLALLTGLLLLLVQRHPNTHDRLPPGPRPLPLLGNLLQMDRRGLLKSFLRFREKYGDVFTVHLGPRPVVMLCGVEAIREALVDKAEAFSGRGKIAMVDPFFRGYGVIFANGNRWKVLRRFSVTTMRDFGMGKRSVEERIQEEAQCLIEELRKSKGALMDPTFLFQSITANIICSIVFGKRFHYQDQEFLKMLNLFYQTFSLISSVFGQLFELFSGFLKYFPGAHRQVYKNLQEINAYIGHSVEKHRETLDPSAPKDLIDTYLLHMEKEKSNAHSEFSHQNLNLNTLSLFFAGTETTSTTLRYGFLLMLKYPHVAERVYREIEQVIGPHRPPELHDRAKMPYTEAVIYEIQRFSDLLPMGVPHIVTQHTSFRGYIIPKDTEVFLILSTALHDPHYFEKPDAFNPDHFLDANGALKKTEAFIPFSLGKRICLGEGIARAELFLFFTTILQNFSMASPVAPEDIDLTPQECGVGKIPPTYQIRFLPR
Description: as §1, §2

T1 sequence (P33261 whole entry, canonical isoform): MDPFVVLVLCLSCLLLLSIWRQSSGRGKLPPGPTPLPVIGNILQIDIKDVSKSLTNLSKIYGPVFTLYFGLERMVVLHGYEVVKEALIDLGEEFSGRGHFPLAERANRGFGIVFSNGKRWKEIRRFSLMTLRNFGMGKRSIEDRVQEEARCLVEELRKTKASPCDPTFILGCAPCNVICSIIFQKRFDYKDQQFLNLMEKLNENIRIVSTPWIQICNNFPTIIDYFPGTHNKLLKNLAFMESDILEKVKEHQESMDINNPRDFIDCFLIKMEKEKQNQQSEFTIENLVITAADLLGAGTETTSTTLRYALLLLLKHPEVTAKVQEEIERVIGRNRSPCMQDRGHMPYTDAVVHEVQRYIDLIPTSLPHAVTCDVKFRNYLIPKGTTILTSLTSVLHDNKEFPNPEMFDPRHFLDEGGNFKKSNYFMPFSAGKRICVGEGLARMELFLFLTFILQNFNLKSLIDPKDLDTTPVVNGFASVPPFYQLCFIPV

SMILES: CC(=O)O[C@@H]1[C@@H](C)CC[C@]2(O)[C@]3(C)CC(=O)O[C@]12[C@@]1(O)C(C)=C(C(C)C)C[C@@]31O [AHC, anhydrocinnzeylanine]
- number of metabolites produced in HLMs [1]: 20
- metabolites of AHC from reaction with CYP2C19 (CYP2C19): not observed
- metabolites of AHC from reaction with CYP2B6 (CYP2B6): not observed
